Calls of active or inactive are those of the source. Cut-off read from the data, not from the text of the source, for most assays here: actives have a measured IC50 and inactives only a lower limit.
Columns and labels:
[1] = biological target: T1, Eukaryotic translation initiation factor 4H (Homo sapiens, UniProt Q15056); test: eIF4H binding inhibition – biochemical, uHTS, fluorescence polarization, translation initiation inhibitor project, primary screen (AID 2012)
[2] = biological target: T2, Polyadenylate-binding protein 1 (Homo sapiens, UniProt P11940); test: blockers of PABP interaction with poly(A) – biochemical, fluorescence polarization, […] (AID 2014)
[3] = biological target: T1, Eukaryotic translation initiation factor 4H; test: inhibitors of translation initiation factor eIF4H – SAR follow-up (AID 435011); format: functional
[4] = biological target: T3, DNA dC->dU-editing enzyme APOBEC-3A (Homo sapiens, UniProt P31941); test: Dose Response confirmation of small molecule APOBEC3A DNA Deaminase Inhibitors via a fluorescence-based single-stranded DNA deaminase assay. [Related pubchem assays (depositor defined):AID493011, AID493024]; format: functional
[5] = biological target: T2, Polyadenylate-binding protein 1; test: PABP inhibition in translation initiation, SAR follow-up (AID 435018); format: functional
[6] = biological target: T4, DNA dC->dU-editing enzyme APOBEC-3G (Homo sapiens, UniProt Q9HC16); format: functional
[7] = biological target: T5, Short transient receptor potential channel 4 (Mus musculus, UniProt Q9QUQ5); test: block of DAMGO-driven TRPC4 calcium entry – cell-based, HEK293 TRPC4/mu-opioid, Fluo-4 calcium, dose response (AID 434942); format: functional;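 note: potency of inhibitors blocking the TRPC4 calcium response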
T5 sequence (Q9QUQ5 whole entry): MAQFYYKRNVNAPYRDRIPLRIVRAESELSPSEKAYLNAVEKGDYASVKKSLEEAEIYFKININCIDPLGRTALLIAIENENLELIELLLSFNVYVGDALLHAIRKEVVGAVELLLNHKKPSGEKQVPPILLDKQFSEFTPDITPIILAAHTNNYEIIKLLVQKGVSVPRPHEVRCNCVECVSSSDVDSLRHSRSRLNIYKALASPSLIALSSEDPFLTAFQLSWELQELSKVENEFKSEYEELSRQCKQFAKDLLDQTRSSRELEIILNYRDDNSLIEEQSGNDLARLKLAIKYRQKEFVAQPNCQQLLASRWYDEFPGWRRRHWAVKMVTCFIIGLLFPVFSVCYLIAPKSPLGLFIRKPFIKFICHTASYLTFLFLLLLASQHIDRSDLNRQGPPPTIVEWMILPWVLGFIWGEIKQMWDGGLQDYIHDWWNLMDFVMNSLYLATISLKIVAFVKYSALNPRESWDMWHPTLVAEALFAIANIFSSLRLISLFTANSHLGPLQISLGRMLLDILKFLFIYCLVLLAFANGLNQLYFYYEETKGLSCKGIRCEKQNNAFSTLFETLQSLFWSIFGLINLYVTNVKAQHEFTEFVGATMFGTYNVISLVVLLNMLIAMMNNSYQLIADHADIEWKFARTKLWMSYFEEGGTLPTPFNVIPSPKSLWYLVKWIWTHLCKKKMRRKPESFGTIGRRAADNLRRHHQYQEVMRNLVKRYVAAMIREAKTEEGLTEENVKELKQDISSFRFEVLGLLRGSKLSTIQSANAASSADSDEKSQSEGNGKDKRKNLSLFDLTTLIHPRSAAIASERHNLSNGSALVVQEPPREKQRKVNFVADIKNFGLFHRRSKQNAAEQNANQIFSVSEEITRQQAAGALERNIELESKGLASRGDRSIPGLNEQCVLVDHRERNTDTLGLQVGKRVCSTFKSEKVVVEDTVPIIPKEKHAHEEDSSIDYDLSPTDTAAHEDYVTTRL

[8] = biological target: T3, DNA dC->dU-editing enzyme APOBEC-3A; test: A3A deaminase inhibition for selectivity – biochemical, dose response (AID 504722); format: functional
[9] = biological target: T4, DNA dC->dU-editing enzyme APOBEC-3G; test: Dose Response confirmation of small molecule APOBEC3G DNA Deaminase Inhibitors via a fluorescence-based single-stranded DNA deaminase assay. [Related pubchem assays (depositor defined):AID493012, AID493028]; format: functional
[10] = biological target: T5, Short transient receptor potential channel 4; test: calcium entry via TRPC4 opening agents – cell-based, HEK293 TRPC4/mu-opioid, Fluo-4 calcium, dose response (AID 434937); format: functional
[11] = biological target: T6, Replicative DNA helicase DnaB (Mycobacterium tuberculosis, UniProt P9WMR3); test: DnaB intein splicing inhibitors, dose response, biochemical, cell-free fluorescence (AID 449749); format: functional
T6 sequence (P9WMR3 whole entry): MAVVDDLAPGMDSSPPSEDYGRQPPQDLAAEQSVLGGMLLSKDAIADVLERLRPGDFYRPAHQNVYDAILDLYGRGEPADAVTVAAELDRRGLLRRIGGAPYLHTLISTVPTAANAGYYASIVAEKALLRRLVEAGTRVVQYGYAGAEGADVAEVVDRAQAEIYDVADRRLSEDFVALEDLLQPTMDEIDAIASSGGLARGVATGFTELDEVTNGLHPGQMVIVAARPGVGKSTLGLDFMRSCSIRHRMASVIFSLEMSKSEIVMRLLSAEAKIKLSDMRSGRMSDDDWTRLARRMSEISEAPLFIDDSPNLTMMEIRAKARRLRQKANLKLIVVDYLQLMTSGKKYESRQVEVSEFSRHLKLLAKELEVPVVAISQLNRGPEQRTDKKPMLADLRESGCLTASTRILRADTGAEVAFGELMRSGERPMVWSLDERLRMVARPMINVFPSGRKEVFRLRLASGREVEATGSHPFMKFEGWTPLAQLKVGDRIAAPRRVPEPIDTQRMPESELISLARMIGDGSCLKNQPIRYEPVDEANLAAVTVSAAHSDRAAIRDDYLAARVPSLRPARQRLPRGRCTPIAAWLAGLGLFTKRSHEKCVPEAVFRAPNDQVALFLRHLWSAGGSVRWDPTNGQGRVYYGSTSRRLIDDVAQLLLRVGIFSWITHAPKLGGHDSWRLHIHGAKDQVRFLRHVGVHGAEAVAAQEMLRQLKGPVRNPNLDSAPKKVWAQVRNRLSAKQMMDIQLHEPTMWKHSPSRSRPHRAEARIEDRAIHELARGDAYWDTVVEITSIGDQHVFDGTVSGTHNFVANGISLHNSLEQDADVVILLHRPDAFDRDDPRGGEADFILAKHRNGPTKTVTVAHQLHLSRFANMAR

[12] = biological target: T7, Protein RecA (Mycobacterium tuberculosis, UniProt P9WHJ3); test: Fluorescence Cell-Free Homogeneous Dose Retest to Identify Inhibitors of RecA-Intein Splicing Activity. [Related pubchem assays (depositor defined):AID2097, AID2223, AID489010, AID492950]; format: functional
T7 sequence (P9WHJ3 whole entry): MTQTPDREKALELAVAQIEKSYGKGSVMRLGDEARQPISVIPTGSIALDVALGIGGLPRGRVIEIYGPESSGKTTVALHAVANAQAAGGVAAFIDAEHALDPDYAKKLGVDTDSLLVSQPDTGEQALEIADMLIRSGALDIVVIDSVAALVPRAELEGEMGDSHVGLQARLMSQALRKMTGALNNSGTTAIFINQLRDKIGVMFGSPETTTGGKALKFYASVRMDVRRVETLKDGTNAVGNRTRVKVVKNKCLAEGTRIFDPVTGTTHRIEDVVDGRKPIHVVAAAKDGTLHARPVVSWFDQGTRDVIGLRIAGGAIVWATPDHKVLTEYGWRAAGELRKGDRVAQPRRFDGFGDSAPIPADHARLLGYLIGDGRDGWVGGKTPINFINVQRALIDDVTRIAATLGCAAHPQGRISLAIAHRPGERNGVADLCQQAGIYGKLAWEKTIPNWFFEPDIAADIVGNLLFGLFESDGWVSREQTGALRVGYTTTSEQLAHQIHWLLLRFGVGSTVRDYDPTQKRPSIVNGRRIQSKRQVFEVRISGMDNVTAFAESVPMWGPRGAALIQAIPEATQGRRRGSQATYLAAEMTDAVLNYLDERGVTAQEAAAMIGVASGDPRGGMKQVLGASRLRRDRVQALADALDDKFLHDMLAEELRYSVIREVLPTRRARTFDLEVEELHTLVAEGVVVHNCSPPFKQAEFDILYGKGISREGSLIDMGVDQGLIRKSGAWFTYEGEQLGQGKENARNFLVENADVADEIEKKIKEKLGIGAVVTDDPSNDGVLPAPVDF

T3 sequence (P31941 whole entry): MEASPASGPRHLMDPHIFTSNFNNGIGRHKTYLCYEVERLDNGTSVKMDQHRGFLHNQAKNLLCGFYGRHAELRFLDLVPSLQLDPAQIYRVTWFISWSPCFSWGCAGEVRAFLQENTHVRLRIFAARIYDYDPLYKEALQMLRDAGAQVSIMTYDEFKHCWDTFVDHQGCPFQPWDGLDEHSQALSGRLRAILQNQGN
T4 sequence (Q9HC16 whole entry): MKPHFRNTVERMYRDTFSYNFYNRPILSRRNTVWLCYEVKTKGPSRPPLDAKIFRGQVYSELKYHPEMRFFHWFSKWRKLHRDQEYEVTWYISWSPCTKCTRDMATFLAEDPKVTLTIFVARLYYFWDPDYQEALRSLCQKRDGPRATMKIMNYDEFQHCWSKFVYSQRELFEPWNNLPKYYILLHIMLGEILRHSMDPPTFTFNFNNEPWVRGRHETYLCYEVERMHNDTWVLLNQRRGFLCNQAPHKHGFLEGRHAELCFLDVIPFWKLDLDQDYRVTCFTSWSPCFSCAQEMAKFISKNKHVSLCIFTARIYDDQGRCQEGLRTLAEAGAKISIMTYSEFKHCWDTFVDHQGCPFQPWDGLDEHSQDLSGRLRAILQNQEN
T2 sequence (P11940 whole entry): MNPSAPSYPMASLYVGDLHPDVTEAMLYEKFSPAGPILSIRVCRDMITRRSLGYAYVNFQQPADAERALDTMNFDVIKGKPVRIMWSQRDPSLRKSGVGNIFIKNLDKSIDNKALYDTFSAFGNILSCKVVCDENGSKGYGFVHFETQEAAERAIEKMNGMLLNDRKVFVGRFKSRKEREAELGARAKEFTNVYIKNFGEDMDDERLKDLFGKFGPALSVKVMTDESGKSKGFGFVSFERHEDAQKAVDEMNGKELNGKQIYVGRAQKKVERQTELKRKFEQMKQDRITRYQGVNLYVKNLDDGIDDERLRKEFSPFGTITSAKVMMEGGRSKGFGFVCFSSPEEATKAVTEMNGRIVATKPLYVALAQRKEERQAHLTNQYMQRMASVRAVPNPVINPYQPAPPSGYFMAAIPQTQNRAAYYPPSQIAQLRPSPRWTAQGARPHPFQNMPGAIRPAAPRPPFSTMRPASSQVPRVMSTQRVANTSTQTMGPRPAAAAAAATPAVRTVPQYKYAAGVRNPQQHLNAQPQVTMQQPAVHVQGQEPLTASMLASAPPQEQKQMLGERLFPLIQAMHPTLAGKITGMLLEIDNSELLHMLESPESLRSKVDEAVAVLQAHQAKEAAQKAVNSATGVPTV

CCN1CCN(S(=O)(=O)c2ccc(Cl)c(C(=O)N(CC)CC(=O)Nc3ccc(OC)cc3)c2)CC1
IC50 [1]: 85.9 µM (active)
IC50 [2]: 3.26 µM (active)
IC50 [3]: 21 µM (active)
IC50 [4]: 3.4 µM (active)
IC50 [5]: 4.68 µM (active)
IC50 [6]: 3.43 µM (active)

CCOC(=O)C1(Cc2ccccc2)CCN(CC2CC=CCC2)CC1 (configuration not stated)
EC50 [7]: 13.3 µM (active)

Cc1ccccc1C(=O)NNC(=S)NC(=O)COc1ccccc1
IC50 [8]: > 100 µM (inactive)
IC50 [9]: 12.7 µM (active)
EC50 [10]: 5.31 µM (active)
AC50 [11]: 29 µM (active)
EC50 [12]: 17.7 µM (active)

From ChEMBL document CHEMBL1201862, “PubChem BioAssay data set” (2004)
